The values that follow come from patent US20250009861A1, “ANTI-CANCER VACCINE COMPOSITION COMPRISING PEPTIDES DERIVED FROM TUMOR-ASSOCIATED ANTIGEN, AND ADJUVANT CONSISTING OF LIPOPEPTIDE AND IMMUNOACTIVE SUBSTANCE, AND USE THEREOF” (CHA VACCINE RESEARCH INSTITUTE CO., LTD, priority 2021, published 2025).

The experiment relates to peripheral blood mononuclear cells (PBMCs). Briefly: IFN-γ ELISPOT immunogenicity assay in PBMCs. The experiment is classed as cell-based, human. Particulars: single peptides, PBMCs of healthy people, compared to control untreated with peptides; FIG. 1. The method, then:
To confirm the immunogenicity of the 13 peptides selected in Example 1, interferon gamma (IFNg)-enzyme linked immuno-SPOT assay (ELISPOT) was performed.
This experiment is a sensitive immunoassay that can detect cytokines secreted by a single cell. By attaching the cytokines secreted when cells are activated to a capture antibody, the secreted cytokines can be measured without being affected by proteins expressed on the cell surface or proteolytic enzymes. After attaching the cytokine to the capture antibody, the cells are removed, a detecting antibody conjugated to an enzyme that can recognize the attached capture antibody is added, and a chromogenic substrate for the enzyme is added, forming a chromogenic spot at the location of the cell secreting the cytokine, and the number of spots can be used to determine the number of cells that have responded to the stimulating antigen.
The peripheral blood mononuclear cells (PBMCs) required for the experiment were isolated from human venous blood as follows. The venous blood was diluted with 1×PBS, placed in SepMate-50 tubes, and centrifuged at 800 g for 20 minutes at room temperature. After centrifugation, the plasma and the separated PBMCs were washed, placed in each well of a 6 well tissue culture plate at a concentration of 1×10^6 cells/mL, and cultured overnight in an incubator (37° C., 5% CO2). The next day, the PBMC culture solution was recovered and centrifuged at 2000 rpm for 15 minutes at room temperature. After centrifugation, PBMCs were seeded in a 6 well cell culture plate, and peptides were added thereto and cultured to stimulate the cells.
At this time, the 13 peptides selected in Example 1 were treated alone or with various peptide combinations, and an untreated group and a ConA group were also prepared for comparative analysis. […] After attaching ELI-FOIL to the dried ELISPOT plate and stamping the membrane, the number of spots in each well was read using an ELISPOT reader. […]
On to “LMLGEFLKL [CHA-6, Survivin (97-104) derived peptide, HLA class I, A02; excluded]”, for which the “immunogenicity (IFN-γ ELISPOT spots)” value is on record as “lowest immunogenicity”. To “TQHFVQENYLEY [CHA-10, Mage-A3 (246-260) derived peptide, HLA class II, DRB1; excluded]” belongs “lowest immunogenicity”; to FLWGPRALV [CHA-11], “lowest immunogenicity”.
